We go through three compounds from patent US11174271B2, “6-membered uracil isosteres” (CV6 Therapeutics (NI) Limited, priority 2016, dated 2021).

Test [1] relates to colorectal (HCT116 and SW620) cell line models. In words: MTS growth inhibition assay. The format is cell-based. The note with it: increasing concentrations of 5-FU between 0 and 100 μmol/L; both colorectal cancer cell lines. The procedure: The Cell Titer AQueous MTS assay (Promega) is carried out according to the manufacturers guidelines. […] The combination effect is determined by the combination index (CI) method utilizing Calcusyn software (Biosoft, Ferguson, Mo.). Fraction affected (FA) is calculated from the percent growth inhibition: FA=[…]. CI values <1, synergism; 1-1.2, additive and >1.2, antagonism.
Test compounds are evaluated for their antitumor activity in colorectal cancer cells using the MTS growth inhibition assay. HCT116 and SW620 cells are exposed to increasing concentrations of each agent for 72 hours and growth inhibition is directly compared to vehicle-treated controls. The NSCLC cell lines A549 and H1299 are exposed to increasing concentrations of each agent for 72 hours and growth inhibition is directly compared to vehicle-treated controls.
MTS growth inhibition assays are performed to evaluate the effectiveness of the test compounds alone and in combination with the fluoropyrimidine thymidylate synthase (TS) inhibitor 5-fluorouracil (5-FU) at inhibiting the growth of colorectal (HCT116 and SW620) cell line models. […] Simultaneous treatment with increasing concentrations of 5-FU and a test compound at fixed concentrations of 25 μmol/L is determined.
For orientation: Formazan colour is commonly taken as a measure of viable cells.

In test [2] the target is T1, recombinant human deoxyuridine nucleotidohydrolase (dUTPase) (Homo sapiens, UniProt P33316).
T1 construct: made in house
T1 sequence (P33316 1-164 isoform P33316-2): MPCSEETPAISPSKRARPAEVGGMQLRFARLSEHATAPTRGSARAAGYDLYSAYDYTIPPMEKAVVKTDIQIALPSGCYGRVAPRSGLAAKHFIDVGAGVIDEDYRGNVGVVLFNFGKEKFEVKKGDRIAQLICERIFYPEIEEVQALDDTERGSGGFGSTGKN
The test can be described thus: fluorescence-based dUTPase inhibition assay (DNA polymerase-based dUTP detection). The format is biochemical. Conditions: mean across three concentrations, typically 100, 50 and 25 μmol/L, compared to the in-run positive control. The source says: Recombinant human deoxyuridine nucleotidohydrolase (dUTPase) is expressed and purified as described in Ladner R D, Carr S A, Huddleston M J, McNulty D E, Caradonna S J. J Biol Chem. 1996 Mar. 29; 271(13):7752-7. All drugs stocks are aliquoted and diluted as appropriate prior to use. The oligonucelotide primer, templates and fluorophore- and quencher-labeled detection probes are synthesized by Integrated DNA Technologies (Coralville, Iowa), subjected to polyacrylamide gel electrophoresis purification and reconstituted in Omnipur sterile nuclease-free water (EMD Chemicals USA, Gibbstown N.J.) at a stock concentration of 100 μmol/L. The two non-emissive (dark) quenching molecules incorporated into the detection probes include the Iowa black fluorescein quencher (IBFQ; absorption max 531 nm) and ZEN (non-abbreviation; absorption max 532 nm). The fluorescent label utilized is 6-FAM (5′-carboxyfluorescein; excitation max.=494 nm, emission max.=520 nm). Probes are further diluted to a working stock of 10 μmol/L and aliquoted to avoid repeated freeze/thaw cycles. AmpliTaq Gold DNA Polymerase, GeneAmp 10×PCR Buffer 2, MgCl2 and MicroAmp Optical 96-well Reaction Plates are purchased from Applied Biosystems (Carlsbad, Calif.). dNTPs are purchased individually at stock concentrations of 100 mmol/L from New England Biolabs at HPLC-certified >99% purity (Ipswich, Mass.).
Reaction mixtures contained primer, probe and template at an equimolar final concentration of 0.4 μmol/L. Magnesium chloride (MgCl2) is included at a final concentration of 2 mmol/L. Non-limiting dNTPs are included in the reaction mix in excess at a final concentration of 100 μmol/L (dUTP/dTTP is excluded). AmpliTaq Gold DNA polymerase is added at 0.875 U/reaction, 2.5 μl of 10×PCR buffer 2 added and nuclease-free ddH2O added to a final reaction volume of 25 μl. For dUTP inhibition analysis, the volume of ddH2O is further modified to accommodate an additional 1 μl of dUTPase (10 ng/μl) and 1 μl of inhibitor or DMSO control. Thermal profiling and fluorescence detection is performed using a customized thermal program on board a Roche Lightcycler LC480 Instrument II. For analysis of dNTPs, the thermal profile consisted of an 8 min 37° C. step followed by a 10 min 95° C. step to ‘hot-start’ the Taq polymerase and a primer extension time of up to 30 min at 60° C. Raw fluorescence spectra for 6-FAM is measured at specified time intervals to follow assay progression on board a Roche LightCycler 480 Software Version 1.5 and exported and analyzed in Microsoft Excel (Microsoft, Redmond Wash.) and Prism (GraphPad Software, La Jolla Calif.). Fluorescence values for blank reactions (limiting dNTP omitted) are subtracted to give normalized fluorescence units (NFU) to account for background fluorescence.
Test compounds were screened in a fluorescence-based assay. The assay employed a DNA polymerase-based approach utilizing an oligonucleotide template with 3 distinct regions: a 3′ primer binding region, a mid-template dUTP/thymidine triphosphate (TTP) detection region and a 5′ 6-[…] (FAM)-labeled probe binding region that incorporates a black hole quenching moiety. During the reaction, the probe and primer hybridize to the oligonucleotide template to form the template:primer:probe complex. When Taq polymerase binds to the primer in the TPP complex and dUTP is present, successful extension of the nascent strand occurs and the inherent 5′ to 3′ exonuclease activity of Taq polymerase cleaves and displaces the 6-FAM-labeled probe in a 5′ to 3′ direction, releasing the 6-FAM fluorophore from its proximity to the […]. This displacement effectively disrupts the Förster resonance energy transfer (FRET) and the resulting fluorescence detected upon excitation is directly proportional to the amount of the dUTP available in the assay for incorporation. […]

Test [3] has as its target T1, recombinant human deoxyuridine nucleotidohydrolase (dUTPase). The test is described as above. The format is biochemical. The note with it: 5 ng recombinant dUTPase, 50 pmols dUTP, 37° C. for 8 mins.
Test [4] concerns colorectal (HCT116), breast (MCF-7) and non-small cell lung (H1299, A549, H358 and H460) cell line models. The test can be described thus: Colony forming assay. Type of test: cell-based. Conditions: increasing concentrations of FUdR between 0.5 and 2.5 μmol/L; all cell lines evaluated. The method, then: Colony forming assay showing the ability of colon (SW620, HCT116), non-small cell lung (A549, H460, H1299 and H358) and breast (MCF7) cancer cells to survive and proliferate following transient 24 hour exposure to test compounds, FUdR and combinations are determined. Specifically, cells are seeded at densities between 50 and 100 cells/well in 24-well plates. […] After 24 hours, drug is removed, cells are rinsed and allowed to outgrow for 10-14 days. At the conclusion of the outgrowth, cells are fixed in 60% ice cold methanol and stained with 0.1% crystal violet, scanned and counted. Data is presented as percentage of untreated controls (mean±SD). Fraction affected and combination indexes are calculated according to the method of Chou and Talalay where <1 is indicative of a synergistic drug interaction.
Colony forming assays are performed to evaluate the effectiveness of test compounds alone and in combination with the fluoropyrimidine thymidylate synthase (TS) inhibitor fluorodeoxyuridine (FUdR) at reducing cancer cell viability in colorectal (HCT116), breast (MCF-7) and non-small cell lung (H1299, A549, H358 and H460) cell line models. […] In colorectal cancer cells, concentrations of test compounds ranging e.g., from 3.1 μmol/L to 50 μmol/L are combined with 0.5 μmol/L FUdR in HCT116 cells and 1 μmol/L FUdR in SW620 cells.

Turning to `O=c1[nH]cc(F)c(=O)[nH]1` [Example 5-FU, 5-fluorouracil], in test [1], the growth inhibition entry was “dose-dependent increases in growth inhibition”.

Regarding `C[C@@H](NS(=O)(=O)CCCOCN1CCC(=O)NC1=O)c1cccc(OC2CCCC2)c1` [Example 93, (R)—N-(1-(3-(cyclopentyloxy)phenyl)ethyl)-3-((2,4-dioxotetrahydropyrimidin-1(2H)-yl)methoxy)propane-1-sulfonamide], the “% relative inhibition vs. positive control” value in test [2] came out at 149%. Also, the half-inhibitory concentration (IC50) in test [3] came out at 500 nM.

For `O=c1[nH]c(=O)n([C@H]2C[C@H](O)[C@@H](CO)O2)cc1F` [FUdR, fluorodeoxyuridine], the colonies formed entry in test [4] was “dose-dependent decreases in colonies formed”.

Broadly, the IC50 is the concentration at which inhibition is half-maximal.
